From patent US20250326771A1, “PIPERAZINE DERIVATIVES USEFUL IN HIV THERAPY” (VIIV HEALTHCARE COMPANY, priority 2022, published 2025) come the findings set out here.

Assay [1] concerns the target XIAP-BIR3 (Homo sapiens (Human), UniProt P98170). As to the kind of experiment: BIR binding assay (FRET competition), XIAP BIR3. To be noted: for XIAP BIR3 vs BIR2 separation window: fold separation (FS) for XIAP. A digest of the protocol: (§1)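 615/665 nm FRET ratio. Compound, His-domain and 200 nM AF647-SMAC peptide incubated 60 min, then 2 nM Eu-W1024 for 30 min. Domains: cIAP1-BIR3 50 nM; XIAP-BIR3 100 nM; cIAP1-BIR2, cIAP2-BIR2 325 nM each. 15-pt 3-fold series; variable-slope IC50.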

Assay [2] has as its target XIAP-BIR2 (Homo sapiens (Human), UniProt P98170). As to the kind of experiment: BIR binding assay (FRET competition), XIAP BIR2. The conditions noted are these: for IC50: read-out: XIAP BIR2 (pIC50) (converted). In a few lines:
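Competitive TR-FRET used His-tagged XIAP-BIR2 (200 nM) and 200 nM AlexaFluor647-labelled AVPIAQKSE SMAC peptide in HEPES buffer pH 7.4 with CHAPS, glycerol and DTT, incubated 60 min before 30 min with 2 nM Eu-W1024. The 615/665 nm ratio from a 15-point, 3-fold series was fit with a four-parameter model for IC50/pIC50.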

The subject of assay [3] is Jurkat HIV-luciferase clones. Briefly: Jurkat latency reversal assay. Type of assay: cell-based. To be noted: Homo sapiens, 48 h; Jurkat latency reversal assay potency; read-out: Jurkat pEC50 (converted). A digest of the protocol: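 Pooled Jurkat clones C16, 115 and N6, each carrying one or two integrated HIV-luciferase proviruses and kept in 500 nM EFV, were exposed to 3-fold, 14-point compound titrations in duplicate (10 μM top, 0.5% DMSO) for 48 h at 37° C. Luciferase luminescence was fitted by four-parameter logistic regression for EC50 and maximal percent activation versus vehicle.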

The target of assay [4] is cIAP1-BIR2 (Homo sapiens (Human), UniProt Q13490). As to the kind of experiment: BIR binding assay (FRET competition), cIAP1 BIR2. A digest of the protocol:
as §1

Assay [5] deals with cIAP2-BIR3 (Homo sapiens (Human), UniProt Q13489). As to the kind of experiment: BIR binding assay (FRET competition), cIAP2 BIR3. To be noted: for cIAP2 BIR3 vs BIR2 separation window: fold separation (FS) for cIAP2.
Assay [6] concerns the target cIAP1-BIR3 (Homo sapiens (Human), UniProt Q13490). Briefly: BIR binding assay (FRET competition), cIAP1 BIR3. To be noted: for cIAP1 BIR3 vs BIR2 separation window: fold separation (FS) for cIAP1. In a few lines:
as §1

Assay [7] concerns the target cIAP2-BIR2 (Homo sapiens (Human), UniProt Q13489). As to the kind of experiment: BIR binding assay (FRET competition), cIAP2 BIR2. A digest of the protocol: as §1

Read-outs that look alike come from different tables or passages of the source.

Chain of cIAP1-BIR2 (Q13490 173-257): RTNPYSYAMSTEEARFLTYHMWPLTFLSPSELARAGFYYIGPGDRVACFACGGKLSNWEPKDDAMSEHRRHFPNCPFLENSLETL
Chain of cIAP2-BIR3 (Q13489 238-349): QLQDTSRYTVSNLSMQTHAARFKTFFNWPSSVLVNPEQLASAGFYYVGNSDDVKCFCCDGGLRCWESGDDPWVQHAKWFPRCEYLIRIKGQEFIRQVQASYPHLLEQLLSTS
Chain of cIAP1-BIR3 (Q13490 253-363): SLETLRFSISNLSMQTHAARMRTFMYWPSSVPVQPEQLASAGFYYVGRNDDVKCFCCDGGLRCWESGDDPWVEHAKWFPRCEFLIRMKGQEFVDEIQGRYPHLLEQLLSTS
Chain of cIAP2-BIR2 (Q13489 158-242): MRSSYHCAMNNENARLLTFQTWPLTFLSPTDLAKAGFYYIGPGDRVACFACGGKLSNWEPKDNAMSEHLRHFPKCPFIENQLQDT
Chain of XIAP-BIR3 (P98170 241-356): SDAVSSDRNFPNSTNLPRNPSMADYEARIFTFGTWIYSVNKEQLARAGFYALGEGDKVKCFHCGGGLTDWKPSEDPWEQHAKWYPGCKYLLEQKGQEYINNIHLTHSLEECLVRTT
Chain of XIAP-BIR2 (P98170 124-240): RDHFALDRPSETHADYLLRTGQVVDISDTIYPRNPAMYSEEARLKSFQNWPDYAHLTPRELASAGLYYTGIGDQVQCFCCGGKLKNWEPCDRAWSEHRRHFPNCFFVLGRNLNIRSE

Take `C[C@@H]1CN(CC(=O)N2CC(C)(C)c3[nH]c(=O)c(Cc4ccc(F)cc4)cc32)[C@@H](CN2CCN(Cc3cn(CC(=O)N4CCN(C[C@H]5CN[C@H](C)CN5CC(=O)N5CC(C)(C)c6[nH]c(=O)c(Cc7ccc(F)cc7)cc65)[C@H](C)C4)nn3)C[C@H]2C)CN1` [Compound 155]: the IC50 is 15.8 to 31.6 nM in assay [1]; 10000 to 51300 nM in assay [2] (FRET competition); 1000 to 3160 nM in assay [4]; 7.94 to 15.8 nM in assay [5]; 1.38 to 7.94 nM in assay [6]; 1000 to 3160 nM in assay [7]. Besides, the “XIAP BIR3 vs BIR2 separation window” value in assay [1] is given as “++++ (FS>10,000)”. The EC50 in assay [3] is 316 to 3310 nM. The “cIAP2 BIR3 vs BIR2 separation window” value in assay [5] was “+++ (10,000>FS>1,000)”. Besides, the “cIAP1 BIR3 vs BIR2 separation window” value in assay [6] is reported as “+++ (10,000>FS>1,000)”.
For `C[C@@H]1CN(CC(=O)N2CC(C)(C)c3[nH]c(=O)c(Cc4ccc(F)cc4)cc32)[C@@H](CN2CCO[C@H](C(=O)NCCCC(=O)N3CCN(C[C@H]4CN[C@H](C)CN4CC(=O)N4CC(C)(C)c5[nH]c(=O)c(Cc6ccc(F)cc6)cc54)[C@H](C)C3)C2)CN1` [Compound 160, (S)-4-(((2R,5R)-1-(2-(6-(4-fluorobenzyl)-3,3-dimethyl-5-oxo-2,3,4,5-tetrahydro-1H-pyrrolo[3,2-b]pyridin-1-yl)-2-oxoethyl)-5-methylpiperazin-2-yl)methyl)-N-(4-((R)-4-(((2R,5R)-1-(2-(6-(4-fluorobenzyl)-3,3-dimethyl-5-oxo-2,3,4,5-tetrahydro-1H-pyrrolo[3,2-b]pyridin-1-yl)-2-oxoethyl)-5-methylpiperazin-2-yl)methyl)-3-methylpiperazin-1-yl)-4-oxobutyl)morpholine-2-carboxamide], the IC50 was 7.94 to 15.8 nM in assay [1]; 10000 to 51300 nM in assay [2] (FRET competition); 1000 to 3160 nM in assay [4]; 7.94 to 15.8 nM in assay [5]; 7.94 to 15.8 nM in assay [6]; 1000 to 3160 nM in assay [7]. Also, the “XIAP BIR3 vs BIR2 separation window” value in assay [1] was “++++ (FS>10,000)”. In addition, in assay [3], the EC50 was 63.1 to 316 nM. In assay [5], the “cIAP2 BIR3 vs BIR2 separation window” value is reported as “+++ (10,000>FS>1,000)”. Also, the “cIAP1 BIR3 vs BIR2 separation window” value in assay [6] was “++ (1,000>FS>100)”.
Take `C[C@@H]1CN(CC(=O)N2CC(C)(C)c3[nH]c(=O)c(Cc4ccc(F)cc4)cc32)[C@@H](CN2CCO[C@H](C(=O)NCCCCNC(=O)[C@@H]3CN(C[C@H]4CN[C@H](C)CN4CC(=O)N4CC(C)(C)c5[nH]c(=O)c(Cc6ccc(F)cc6)cc54)CCO3)C2)CN1` [Example 126, (2S,2'S)-N,N′-(butane-1,4-diyl)bis(4-(((2R,5R)-1-(2-(6-(4-fluorobenzyl)-3,3-dimethyl-5-oxo-2,3,4,5-tetrahydro-1H-pyrrolo[3,2-b]pyridin-1-yl)-2-oxoethyl)-5-methylpiperazin-2-yl)methyl)morpholine-2-carboxamide)]: the IC50 in assay [1] was 7.94 to 15.8 nM; in assay [2] (FRET competition binding) it was 10000 to 51300 nM; in assay [4], 1000 to 3160 nM; in assay [5], 7.94 to 15.8 nM; in assay [6] it was 7.94 to 15.8 nM; in assay [7], 1000 to 3160 nM. The “XIAP BIR3 vs BIR2 separation window” value in assay [1] is listed as “++++ (FS>10,000)”. For the same molecule, the EC50 in assay [3] is 63.1 to 316 nM. For the same molecule, in assay [5], the “cIAP2 BIR3 vs BIR2 separation window” value is recorded as “+++ (10,000>FS>1,000)”. Besides, the “cIAP1 BIR3 vs BIR2 separation window” value in assay [6] was “+++ (10,000>FS>1,000)”.
`C[C@@H]1CN(CC(=O)N2CC(C)(C)c3[nH]c(=O)c(Cc4ccc(F)cc4)cc32)[C@@H](CN2CCC[C@@H](NC(=O)Cc3ccc(CC(=O)N[C@@H]4CCCN(C[C@H]5CN[C@H](C)CN5CC(=O)N5CC(C)(C)c6[nH]c(=O)c(Cc7ccc(F)cc7)cc65)C4)cc3)C2)CN1` [Example 48, 2,2′-(1,4-phenylene)bis(N-((R)-1-(((2R,5R)-1-(2-(6-(4-fluorobenzyl)-3,3-dimethyl-5-oxo-2,3,4,5-tetrahydro-1H-pyrrolo[3,2-b]pyridin-1-yl)-2-oxoethyl)-5-methylpiperazin-2-yl)methyl)piperidin-3-yl)acetamide)]: the IC50 is 15.8 to 31.6 nM in assay [1]; 10000 to 51300 nM in assay [2] (FRET competition binding); 10000 to 51300 nM in assay [4]; 15.8 to 31.6 nM in assay [5]; 15.8 to 31.6 nM in assay [6]; 10000 to 51300 nM in assay [7]. In assay [1], the “XIAP BIR3 vs BIR2 separation window” value was “++++ (FS>10,000)”. Further, in assay [3], the EC50 was 316 to 3310 nM. The “cIAP2 BIR3 vs BIR2 separation window” value in assay [5] is given as “++++ (FS>10,000)”. Further, the “cIAP1 BIR3 vs BIR2 separation window” value in assay [6] is “+++ (10,000>FS>1,000)”.
As for `C[C@@H]1CN(CC(=O)N2CC(C)(C)c3[nH]c(=O)c(Cc4ccc(F)cc4)cc32)[C@@H](CN2CCO[C@H](C(=O)NCCN3CCN(C(=O)[C@@H]4CN(C[C@H]5CN[C@H](C)CN5CC(=O)N5CC(C)(C)c6[nH]c(=O)c(Cc7ccc(F)cc7)cc65)CCO4)CC3)C2)CN1` [Compound 134, (S)-4-(((2R,5R)-1-(2-(6-(4-fluorobenzyl)-3,3-dimethyl-5-oxo-2,3,4,5-tetrahydro-1H-pyrrolo[3,2-b]pyridin-1-yl)-2-oxoethyl)-5-methylpiperazin-2-yl)methyl)-N-(2-(4-((S)-4-(((2R,5R)-1-(2-(6-(4-fluorobenzyl)-3,3-dimethyl-5-oxo-2,3,4,5-tetrahydro-1H-pyrrolo[3,2-b]pyridin-1-yl)-2-oxoethyl)-5-methylpiperazin-2-yl)methyl)morpholine-2-carbonyl)piperazin-1-yl)ethyl)morpholine-2-carboxamide], the IC50 in assay [1] is 31.6 to 501 nM; in assay [2] (FRET competition) it was 10000 to 51300 nM; in assay [4], 1000 to 3160 nM; in assay [5], 7.94 to 15.8 nM; in assay [6], 15.8 to 31.6 nM; in assay [7], 1000 to 3160 nM. Further, the “XIAP BIR3 vs BIR2 separation window” value in assay [1] was “+++ (10,000>FS>1,000)”. For the same molecule, the EC50 in assay [3] is 12.6 to 63.1 nM. In addition, the “cIAP2 BIR3 vs BIR2 separation window” value in assay [5] is recorded as “+++ (10,000>FS>1,000)”. The “cIAP1 BIR3 vs BIR2 separation window” value in assay [6] is “++ (1,000>FS>100)”.
For `C[C@@H]1CN(CC(=O)N2CC(C)(C)c3[nH]c(=O)c(Cc4ccc(F)cc4)cc32)[C@@H](CN2CCO[C@H](COCc3cccc(COC[C@@H]4CN(C[C@H]5CN[C@H](C)CN5CC(=O)N5CC(C)(C)c6[nH]c(=O)c(Cc7ccc(F)cc7)cc65)CCO4)c3)C2)CN1` [Example 80, 1,1′-(2,2′-((3R,3′R,6R,6′R)-(((2S,2'S)-(((1,3-phenylenebis(methylene))bis(oxy))bis(methylene))bis(morpholine-2,4-diyl))bis(methylene))bis(3-methylpiperazine-6,1-diyl))bis(acetyl))bis(6-(4-fluorobenzyl)-3,3-dimethyl-1,2,3,4-tetrahydro-5H-pyrrolo[3,2-b]pyridin-5-one)], the IC50 in assay [1] is 1.38 to 7.94 nM; in assay [2] (FRET competition binding) it was 10000 to 51300 nM; in assay [4], 1000 to 3160 nM; in assay [5] it was 1.38 to 7.94 nM; in assay [6] it was 1.38 to 7.94 nM; in assay [7], 3160 to 10000 nM. For the same molecule, the “XIAP BIR3 vs BIR2 separation window” value in assay [1] is given as “++++ (FS>10,000)”. Also, the EC50 in assay [3] is 0.49 to 12.6 nM. The “cIAP2 BIR3 vs BIR2 separation window” value in assay [5] is “+++ (10,000>FS>1,000)”. Besides, in assay [6], the “cIAP1 BIR3 vs BIR2 separation window” value is given as “+++ (10,000>FS>1,000)”.
For the molecule `C[C@@H]1CN(CC(=O)N2CC(C)(C)c3[nH]c(=O)c(Cc4ccc(F)cc4)cc32)[C@@H](CN2CCC[C@@H](NC(=O)CCCCCCC(=O)N[C@@H]3CCCN(C[C@H]4CN[C@H](C)CN4CC(=O)N4CC(C)(C)c5[nH]c(=O)c(Cc6ccc(F)cc6)cc54)C3)C2)CN1` [Example 44, N^1,N^8-bis((R)-1-(((2R,5R)-1-(2-(6-(4-fluorobenzyl)-3,3-dimethyl-5-oxo-2,3,4,5-tetrahydro-1H-pyrrolo[3,2-b]pyridin-1-yl)-2-oxoethyl)-5-methylpiperazin-2-yl)methyl)piperidin-3-yl)octanediamide], the IC50 in assay [1] lay within 15.8 to 31.6 nM; in assay [4] it was 10000 to 51300 nM; in assay [5], 15.8 to 31.6 nM; in assay [7], 10000 to 51300 nM. In addition, the “XIAP BIR3 vs BIR2 separation window” value in assay [1] is given as “++++ (FS>10,000)”. The “XIAP BIR2 (pIC50)” value in assay [2] (FRET competition binding) is “+ (4.29<pIC50<=5.00)”. Besides, in assay [3], the EC50 was 316 to 3310 nM. Also, the “cIAP2 BIR3 vs BIR2 separation window” value in assay [5] was “++++ (FS>10,000)”. In addition, in assay [6] (FRET competition binding), the “cIAP1 BIR3 (pIC50)” value is given as “+ (7.50>pIC50>=6.30)”. In addition, the “cIAP1 BIR3 vs BIR2 separation window” value in assay [6] was “+++ (10,000>FS>1,000)”.
